Measured values published in patent US8071591B2, “7-cycloalkylaminoquinolones as GSK-3 inhibitors” (Kyorin Pharmaceutical Co., Ltd., priority 2009, dated 2011).

How the values were obtained:
Male Crlj:CD1 (ICR) mice = assay: Glucose tolerance study in fasted ICR mice; type: in vivo; conditions: 10 mg/kg orally, 30 minutes before oral glucose load (5 g/kg), fasted 7-week-old ICR mice
Procedure: Male Crlj:CD1 (ICR) mice were obtained from Charles River Laboratories Japan (Yokohama, Japan). All mice were given a standard diet (Clea Japan, Tokyo, Japan) and tap water ad libitum. All institutional guidelines for animal care and use were applied in this study. Test compounds were suspended in 0.3% carbozymethyl-cellulose sodium salt (CMC-Na; Sigma, St. Louis, Mo.). After fasting for 15-17 hours, the test compound (3, 10, 30, 100 or 300 mg/kg) or vehicle (0.3% CMC-Na) was orally administered to 7-week-old ICR mice. Glucose solution (5 g/kg) was orally administered at 30 minutes after test compound treatment. Blood samples were collected from tail vein using capillary tubes containing EDTA-2K before test compound treatment, and at 0, 0.5, 1, and 2 hours after glucose load. The blood samples were centrifuged at 2,500×g for 5 minutes and separated plasma was kept on ice and analyze in the same day. Plasma glucose levels were determined using the glucose CII-test (Wako Pure Chemical Industries, Osaka, Japan). The sum of plasma glucose levels at 0.5 and 1 hr after glucose load was compared to that of vehicle treatment, and results were presented as percent decrease.

HepG2 cells = assay: GS activation: [3H]glucose incorporation into glycogen in HepG2 cells; type: cell-based; conditions: Homo sapiens, 3 hrs incubation with D-[2-3H]glucose, serum-free low-glucose DMEM, read-out: EC50 for glycogen synthesis
Procedure: HepG2 cells were obtained from the Japanese Collection of Research Bioresources and were grown in standard culture medium, a low-glucose Dulbecco's modified Eagle's medium (DMEM) containing 10% fetal calf serum supplemented with 100 U/mL penicillin and 100 μg/mL streptomycin, in a humidified and 5% CO2 atmosphere kept at 37° C. The HepG2 cells were harvested with 0.25% trypsin solution containing 1 mM EDTA, and were seeded on 12 well plates at 1×10^5 cells per well. Following a culture for 3 days, the cells were washed once with phosphate buffered saline (PBS), and were incubated with serum-free low-glucose DMEM supplemented with 100 U/mL penicillin and 100 μg/mL streptomycin. Following a culture for 3 hrs, GSK-3 inhibitor at various concentration and 2.5 μCi/mL D-[2-^3H]glucose (New England Nuclear, Boston, Mass., USA) were added to the serum-free low-glucose DMEM. A vehicle control of DMSO (0.3%, final concentration) was also used. Total volume per well of the reaction medium was 1.0 mL of serum-free low-glucose DMEM. After incubation at 37° C. for 3 hrs, medium was aspirated and cells were washed twice with PBS, and were added 0.25 mL of 1 N KOH containing 0.4 mg/mL carrier glycogen. […] [^3H]Glucose incorporation into glycogen was assessed using a liquid scintillation counter (Packard Instrument Co., Meriden, Conn., USA).

Row | SMILES | percent decrease of the sum of plasma glucose levels at 0.5 and 1 hr after glucose load vs vehicle (Male Crlj:CD1 (ICR) mice) [%] | EC50 (HepG2 cells) [nM]
1 | C[C@H]1COc2c(N[C@@H]3CC[C@@H](c4ccccn4)C3)c(F)c(N)c3c(=O)c(C#N)cn1c23 [Example 2, (3S)-8-amino-9-fluoro-2,3-dihydro-3-methyl-7-oxo-10-[(1R,3R)-3-(2-pyridyl)cyclopentylamino]-7H-pyrido[1,2,3-de][1,4]benzoxazine-6-carbonitrile] | 22 | –
2 | C[C@H]1COc2c(N[C@H]3CC[C@H](c4cccnc4)CC3)c(F)c(N)c3c(=O)c(C#N)cn1c23 [Example 7, (3S)-8-amino-9-fluoro-2,3-dihydro-3-methyl-7-oxo-10-[trans-4-(3-pyridyl)cyclohexylamino]-7H-pyrido[1,2,3-de][1,4]benzoxazine-6-carbonitrile] | – | ≤ 300
3 | C[C@H]1COc2c(NC3CCCC(c4cccnc4)C3)c(F)c(N)c3c(=O)c(C#N)cn1c23 (stereo in doubt) [Example 9, (3S)-8-amino-9-fluoro-2,3-dihydro-3-methyl-7-oxo-10-[trans-3-(3-pyridyl)cyclohexylamino]-7H-pyrido[1,2,3-de][1,4]benzoxazine-6-carbonitrile] | – | ≤ 300
